“And” between values parts separate entries of the source, which are not always exact repeats. Equal values may be shown once.

By Ki is commonly meant a measure of affinity in units of concentration, obtained from inhibition or displacement.

In one experiment the target is T1, αSYN fibrils (Homo sapiens, UniProt P37840).
T1 construct: cloning of the DNA construct encoding full-length αSYN into the pET-22b vector; made in house; host or cells: Escherichia coli BL21
The experiment is described as follows: [^3H]PiB competition binding assay on αSYN fibrils. The settings on record: Ki, αSYN [^3H]PiB competition, mean Ki ± SEM, n = 3, or single determinations. On the procedure: Following the cloning of the DNA construct encoding full-length αSYN into the pET-22b vector and its transformation into BL21 cells, the expression of human αSYN from a prokaryotic host was induced overnight in Escherichia coli at 20 °C with 0.5 mM IPTG. The cells were harvested by centrifugation, resuspended in 20 mM Tris-HCl pH 7.6, 25 mM NaCl and 1× complete protease inhibitor (Roche, Basel, Switzerland), and lysed by sonication. […] Anion exchange chromatography (HiTrap Q, GE Healthcare, Chicago, Illinois) was used to trap the produced αSYN, which was eluted with NaCl 0.1 M over 20 column volumes. Fractions containing αSYN were concentrated and further purified through a Superdex 75 SEC column equilibrated with PBS. […] A 4 mg/mL solution of αSYN in 20 mM K3PO4 pH 9.1 was placed in an orbital shaker at 37 °C, 1000 rpm for 5 days to prepare P91s. The assemblies were either sonicated with cycles of 20 s on and 10 s off at 50% amplitude (Q800R3, Qsonica) for a total of 10 min or directly aliquoted in volumes of 10 μL each stored at −80 °C until use. […] The final products were aliquoted, frozen on dry ice, and stored at −80 °C until use.
Concentrations of αSYN and Aβ1-42 fibrils were as described above.
Plates were incubated on a shaker (MaxQ 6000, Thermo Fisher Scientific, Inc., Marietta, OH) at 50 rpm for 2 h at 37 °C, covered by removable sealing tapes (PerkinElmer, Waltham, MA). Vacuum filtration and read-out were performed as previously reported.[17] […] Data points were fitted using nonlinear regression analysis in GraphPad Prism (GraphPad Software, Inc., Version 8.4.0, La Jolla).
Turning to `C[n+]1c(C=CC=Cc2ccc(N3CCCCC3)cc2)sc2ccccc21` [14b, 3-Methyl-2-(4-(4-(piperidin-1-yl)phenyl)buta-1,3-dien-1-yl)benzo[d]thiazol-3-ium Iodide], the inhibition constant Ki was < 20 nM.

The experiment is the same for the next values; noted with them: methylated compounds, Table 2; two values in a cell = single determinations; read-out: Ki.
As to `C[n+]1c(C=Cc2ccc(N3CCCCC3)cc2)sc2c(F)cccc21` [12b, 7-Fluoro-3-methyl-2-(4-(piperidin-1-yl)styryl)benzo[d]thiazol-3-ium Iodide], the inhibition constant Ki is > 400 nM.
On to `COc1cccc2sc(C=Cc3ccc(N4CCCCC4)cc3)[n+](C)c12` [2b, 4-Methoxy-3-methyl-2-(4-(piperidin-1-yl)styryl)benzo[d]thiazol-3-ium Iodide], for which the Ki was 70.8 nM and 34.3 nM.
Still for that read-out and setting: then `COc1ccc2sc(C=Cc3ccc(N4CCCCC4)cc3)[n+](C)c2c1` [5b, 5-Methoxy-3-methyl-2-(4-(piperidin-1-yl)styryl)benzo[d]thiazol-3-ium Iodide], with 27.5 nM and 163 nM; and `Cc1cccc2sc(/C=C/c3ccc(N4CCCCC4)cc3)[n+](C)c12` [1b, 3,4-Dimethyl-2-(4-(piperidin-1-yl)styryl)benzo[d]thiazol-3-ium 4-nitrobenzenesulfonate], with 36.1 nM and 83.9 nM; and `COc1cccc2c1sc(C=Cc1ccc(N3CCCCC3)cc1)[n+]2C` [11b, 7-Methoxy-3-methyl-2-(4-(piperidin-1-yl)styryl)benzo[d]thiazol-3-ium Iodide], with 234 nM and 177 nM.
With `C[n+]1c(/C=C/c2ccc(N3CCOCC3)cc2)sc2ccccc21` [15b, 3-Methyl-2-(4-morpholinostyryl)benzo[d]thiazol-3-ium Iodide], the Ki was > 400 nM.
`Cc1cccc2c1sc(C=Cc1ccc(N3CCCCC3)cc1)[n+]2C` [10b, 3,7-Dimethyl-2-(4-(piperidin-1-yl)styryl)benzo[d]thiazol-3-ium Iodide]: the Ki is 231 nM and 63.9 nM.
In the case of `Cc1ccc2c(c1)sc(C=Cc1ccc(N3CCCCC3)cc1)[n+]2C` [7b, 3,6-Dimethyl-2-(4-(piperidin-1-yl)styryl)benzo[d]thiazol-3-ium Iodide], the Ki is 16.8 nM and 23.8 nM.
Take `C[n+]1c(C=CC=Cc2ccc(N3CCCCC3)cc2)sc2ccccc21` [14b, 3-Methyl-2-(4-(4-(piperidin-1-yl)phenyl)buta-1,3-dien-1-yl)benzo[d]thiazol-3-ium Iodide]: the Ki was 23 nM and 16.8 nM.
Consider `C[n+]1c(C=Cc2ccc(N3CCSCC3)cc2)sc2ccccc21` [16b, 3-Methyl-2-(4-thiomorpholinostyryl)benzo[d]thiazol-3-ium Iodide], for which the Ki is > 400 nM.
Regarding `C[n+]1c(C=Cc2ccc(N3CCC(F)CC3)cc2)sc2ccccc21` [18b, 2-(4-(4-Fluoropiperidin-1-yl)styryl)-3-methylbenzo[d]thiazol-3-ium Iodide], the Ki is > 400 nM.
As for `COc1ccc2c(c1)sc(C=Cc1ccc(N3CCCCC3)cc1)[n+]2C` [8b, 6-Methoxy-3-methyl-2-(4-(piperidin-1-yl)styryl)benzo[d]thiazol-3-ium Iodide], the inhibitory constant (Ki) was 19.7 nM and 9.6 nM.
In the case of `Cc1ccc2sc(C=Cc3ccc(N4CCCCC4)cc3)[n+](C)c2c1` [4b, 3,5-Dimethyl-2-(4-(piperidin-1-yl)styryl)benzo[d]thiazol-3-ium Iodide], the Ki was 84.6 nM and 59.9 nM.
Same read-out and setting: then `C[n+]1c(C=Cc2ccc(N3CCCC3)cc2)sc2ccccc21` [17b, 3-Methyl-2-(4-(pyrrolidin-1-yl)styryl)benzo[d]thiazol-3-ium Iodide], with 145 nM and 58.6 nM; and `C[n+]1c(-c2ccc(N3CCCCC3)cc2)sc2ccccc21` [13b, 3-Methyl-2-(4-(piperidin-1-yl)phenyl)benzo[d]thiazol-3-ium], with > 400 nM; and `C[n+]1c(/C=C/c2ccc(N3CCCCC3)cc2)sc2cccc(F)c21` [3b, 4-Fluoro-3-methyl-2-(4-(piperidin-1-yl)styryl)benzo[d]thiazol-3-ium 4-nitrobenzenesulfonate], with > 400 nM.
As for `C[n+]1c(C=Cc2ccc(N3CCCCC3)cc2)sc2cc(F)ccc21` [9b, 6-Fluoro-3-methyl-2-(4-(piperidin-1-yl)styryl)benzo[d]thiazol-3-ium Iodide], the Ki was 335 nM and 43.6 nM.
Still for that read-out and setting: then `C[n+]1c(C=Cc2ccc(N3CCCCC3)cc2)sc2ccc(F)cc21` [6b, 5-Fluoro-3-methyl-2-(4-(piperidin-1-yl)styryl)benzo[d]thiazol-3-ium Iodide], with 435 nM and 268 nM.
The same measure, in the same setting: then `CN(C)c1ccc(/C=C/c2sc3ccccc3[n+]2C)cc1` [19b, 2-(4-(Dimethylamino)styryl)-3-methylbenzo[d]thiazol-3-ium Iodide], with > 400 nM.

The same experiment, now with this note: nonmethylated compounds, Table 1; two values in a cell = single determinations; a: mean Ki ± SEM of three data points; b: single data point; read-out: Ki.
For the compound `Cc1ccc2nc(C=Cc3ccc(N4CCCCC4)cc3)sc2c1` [7a, 6-Methyl-2-(4-(piperidin-1-yl)styryl)benzo[d]thiazole], the Ki was 230 nM and 218 nM.
As to `C(=Cc1nc2ccccc2s1)c1ccc(N2CCSCC2)cc1` [16a, 2-(4-Thiomorpholinostyryl)benzo[d]thiazole], the Ki was 219 nM and 58.6 nM.
Regarding `CN(C)c1ccc(C=Cc2nc3ccccc3s2)cc1` [19a, 4-(2-(Benzo[d]thiazol-2-yl)vinyl)-N,N-dimethylaniline], the Ki is > 400 nM.
Regarding `COc1cccc2sc(C=Cc3ccc(N4CCCCC4)cc3)nc12` [2a, 4-Methoxy-2-(4-(piperidin-1-yl)styryl)benzo[d]thiazole], the Ki was > 400 nM.
With `Cc1ccc2sc(C=Cc3ccc(N4CCCCC4)cc3)nc2c1` [4a, 5-Methyl-2-(4-(piperidin-1-yl)styryl)benzo[d]thiazole], the inhibitory constant (Ki) was 233 nM and 88.1 nM.
With `FC1CCN(c2ccc(C=Cc3nc4ccccc4s3)cc2)CC1` [18a, 2-(4-(4-Fluoropiperidin-1-yl)styryl)benzo[d]thiazole], the Ki was 99.8 ± 32.6 nM.
Turning to `Fc1cccc2sc(C=Cc3ccc(N4CCCCC4)cc3)nc12` [3a, 4-Fluoro-2-(4-(piperidin-1-yl)styryl)benzo[d]thiazole], the Ki was 187 nM and 110 nM.
On the same count and under the same terms, as for `Fc1ccc2sc(C=Cc3ccc(N4CCCCC4)cc3)nc2c1` [6a, 5-Fluoro-2-(4-(piperidin-1-yl)styryl)benzo[d]thiazole], the figure is 169 nM and 124 nM; as for `Fc1cccc2nc(C=Cc3ccc(N4CCCCC4)cc3)sc12` [12a, 7-Fluoro-2-(4-(piperidin-1-yl)styryl)benzo[d]thiazole], 283 nM; as for `C(=Cc1nc2ccccc2s1)c1ccc(N2CCCCC2)cc1` [compound 20, 2-(4-(Piperidin-1-yl)styryl)benzo[d]thiazole], 170 nM and 33.5 nM.
For `COc1cccc2nc(C=Cc3ccc(N4CCCCC4)cc3)sc12` [11a, 7-Methoxy-2-(4-(piperidin-1-yl)styryl)benzo[d]thiazole], the Ki is > 400 nM.
Consider `Cc1cccc2nc(C=Cc3ccc(N4CCCCC4)cc3)sc12` [10a, 7-Methyl-2-(4-(piperidin-1-yl)styryl)benzo[d]thiazole], for which the Ki is > 400 nM.
Turning to `Cc1cccc2sc(C=Cc3ccc(N4CCCCC4)cc3)nc12` [1a, 4-Methyl-2-(4-(piperidin-1-yl)styryl)benzo[d]thiazole], the Ki was 71.2 nM and 198 nM.
Take `COc1ccc2sc(C=Cc3ccc(N4CCCCC4)cc3)nc2c1` [5a, 5-Methoxy-2-(4-(piperidin-1-yl)styryl)benzo[d]thiazole]: the Ki is 128 nM and 188 nM.
Still for that read-out and setting: as for `COc1ccc2nc(C=Cc3ccc(N4CCCCC4)cc3)sc2c1` [8a, 6-Methoxy-2-(4-(piperidin-1-yl)styryl)benzo[d]thiazole], the figure is 110 nM and 103 nM.

The record behind these values is paper PMC10468942, “A Fluorescent Probe as a Lead Compound for a Selective α-Synuclein PET Tracer: Development of a Library of 2-Styrylbenzothiazoles and Biological Evaluation of [^18F]PFSB and [^18F]MFSB” (ACS Omega, 2023).
